Experimental data taken from the supplement of paper PMC11061612.

Tests used:
Test in all cases: Bliss excess, mean over the matrix (fraction); higher = more synergy
[1] = system: 23132-87 (Gastric Carcinoma)
In short: (§1)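 After 24 hours at 37°C and 5% CO2 in 1536-well plates, cells in DMEM/F12 or RPMI plus 10% FBS received two-drug dose matrices for 72 hours. Viability came from CellTiter-Glo 2.0 luminescence and was scaled as inhibition, anchored at 0 by vehicle wells and at 1 by blank wells. Combination Emax is taken as the second-highest inhibition in the matrix, and Bliss excess as the observed combination effect less EA + EB − EA·EB, with EA and EB the single-agent effects.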

[2] = system: A2058 (Melanoma)
In short: as §1

[3] = system: COLO-680N (Esophageal Squamous Cell Carcinoma)
In short: as §1

[4] = system: HCT-15 (Colorectal Carcinoma)
In short: as §1

[5] = system: HEC-1 (Endometrial Carcinoma)
In short: as §1

[6] = system: KE-37 (T-Lymphoblastic Leukemia)
In short: as §1

[7] = system: LB996-RCC (Kidney Carcinoma)
In short: as §1

[8] = system: LN-229 (Glioblastoma)
In short: as §1

[9] = system: MKN45 (Gastric Carcinoma)
In short: as §1

[10] = system: NCI-H23 (Lung Adenocarcinoma)
In short: as §1

[11] = system: PANC-03-27 (Pancreatic Carcinoma)
In short: as §1

[12] = system: PC-3_[JPC-3] (Lung Adenocarcinoma)
In short: as §1

[13] = system: RCM-1 (Colorectal Carcinoma)
In short: as §1

[14] = system: RERF-GC-1B (Gastric Carcinoma)
In short: as §1

[15] = system: RERF-LC-Sq1 (Squamous Cell Lung Carcinoma)
In short: as §1

[16] = system: RKN (Other Solid Carcinomas)
In short: as §1

[17] = system: SF539 (Glioblastoma)
In short: as §1

[18] = system: SU-DHL-10 (B-Cell Non-Hodgkin's Lymphoma)
In short: as §1

[19] = system: TE-8 (Esophageal Squamous Cell Carcinoma)
In short: as §1

[20] = system: WM793B (Melanoma)
In short: as §1

Row | SMILES | Bliss excess [1] | Bliss excess [2] | Bliss excess [3] | Bliss excess [4] | Bliss excess [5] | Bliss excess [6] | Bliss excess [7] | Bliss excess [8] | Bliss excess [9] | Bliss excess [10] | Bliss excess [11] | Bliss excess [12] | Bliss excess [13] | Bliss excess [14] | Bliss excess [15] | Bliss excess [16] | Bliss excess [17] | Bliss excess [18] | Bliss excess [19] | Bliss excess [20]
1 | COc1nnc2ccc(N3CCC(c4ccc(OCCN5CCN(C)C(=O)[C@H]5C)cc4)CC3)nn12 [AZD5153] + Cn1cnc2c(F)c(Nc3ccc(Br)cc3Cl)c(C(=O)NOCCO)cc21 [Selumetinib] (first compound max 1 µM, 7x7, partner max 10 µM) | -0.036 | 0.0358 | 0.0131 | 0.0243 | -0.0115 | -0.0459 | -0.0728 | -0.0426 | -0.0237 | -0.0027 | 0.0131 | 0.0189 | -0.008 | 0.0579 | 0.102 | -0.0073 | -0.0255 | 0.0107 | 0.032 | -0.074
2 | Cc1c2c(nn1C)CSCc1cc(n(C)n1)CSc1cc(c3ccccc3c1)OCCCc1c(C(=O)O)n(C)c3c-2c(Cl)ccc13 [AZD5991] + C1CN(CCC1(C(=O)N[C@@H](CCO)C2=CC=C(C=C2)Cl)N)C3=NC=NC4=C3C=CN4 [Capivasertib] (first compound max 1 µM, 7x7, partner max 3 µM) | -0.0492 | 0.0972 | -0.0223 | 0.002 | -0.025 | -0.0409 | 0.0013 | 0.0178 | -0.0262 | -0.0276 | 0.002 | -0.0062 | 0.0005 | -0.0124 | 0.0125 | -0.0234 | -0.0043 | -0.0047 | 0.0306 | 0.0045
3 | Cc1c2c(nn1C)CSCc1cc(n(C)n1)CSc1cc(c3ccccc3c1)OCCCc1c(C(=O)O)n(C)c3c-2c(Cl)ccc13 [AZD5991] + C=CCn1c(=O)c2cnc(Nc3ccc(N4CCN(C)CC4)cc3)nc2n1-c1cccc(C(C)(C)O)n1 [AZD1775] (first compound max 1 µM, partner max 1 µM) | 0.0274 | 0.0959 | 0.0254 | -0.0306 | 0.0192 | 0.0334 | -0.008 | 0.0754 | -0.0456 | -0.0174 | 0.0186 | 0.005 | -0.0271 | 0.0041 | 0.0112 | -0.0446 | -0.0239 | 0.0259 | -0.058 | 0.0054
4 | Cc1c2c(nn1C)CSCc1cc(n(C)n1)CSc1cc(c3ccccc3c1)OCCCc1c(C(=O)O)n(C)c3c-2c(Cl)ccc13 [AZD5991] + CC1(C)CCC(CN2CCN(c3ccc(C(=O)NS(=O)(=O)c4ccc(NCC5CCOCC5)c([N+](=O)[O-])c4)c(Oc4cnc5[nH]ccc5c4)c3)CC2)=C(c2ccc(Cl)cc2)C1 [Venetoclax] (first compound max 1 µM, 7x7, partner max 1 µM) | 0.0019 | 0.0967 | -0.0255 | -0.0087 | -0.0543 | 0.0273 | -0.0251 | -0.0271 | -0.0206 | -0.0077 | -0.0397 | -0.0503 | 0.0136 | -0.0126 | -0.0191 | -0.0337 | 0.0187 | -0.0173 | 0.0098 | -0.0016
5 | Cc1c2c(nn1C)CSCc1cc(n(C)n1)CSc1cc(c3ccccc3c1)OCCCc1c(C(=O)O)n(C)c3c-2c(Cl)ccc13 [AZD5991] + CCN(CCO)CCCOc1ccc2c(Nc3cc(CC(=O)Nc4cccc(F)c4)[nH]n3)ncnc2c1 [AZD2811] (first compound max 1 µM, 7x7, partner max 1 µM) | -0.0075 | 0.114 | 0.007 | 0.0432 | 0.0547 | 0.0133 | -0.0388 | 0.0043 | -0.0123 | 0.0222 | 0.0566 | -0.0049 | -0.0249 | 0.014 | 0.043 | -0.0015 | 0.0184 | -0.0133 | -0.0138 | 0.0264
6 | Cc1c2c(nn1C)CSCc1cc(n(C)n1)CSc1cc(c3ccccc3c1)OCCCc1c(C(=O)O)n(C)c3c-2c(Cl)ccc13 [AZD5991] + CN(C)CCCOc1ccc(-c2ccc3ncc4c(c3c2)n(C2CCOCC2)c(=O)n4C)cn1 [AZD0156] (first compound max 1 µM, 7x7, partner max 1 µM) | -0.0643 | -0.0048 | 0.0049 | 0.0369 | -0.0025 | 0.0257 | -0.0569 | 0.0024 | -0.0594 | -0.0201 | -0.0201 | -0.0156 | -0.0105 | 0.0263 | 0.0372 | 0.0006 | -0.0184 | -0.0258 | -0.0172 | -0.0312
7 | Cc1c2c(nn1C)CSCc1cc(n(C)n1)CSc1cc(c3ccccc3c1)OCCCc1c(C(=O)O)n(C)c3c-2c(Cl)ccc13 [AZD5991] + C[C@@H](Nc1cc(F)cc(F)c1)c1cc(C(=O)N(C)C)cc2c(=O)cc(N3CCOCC3)oc12 [AZD8186] (first compound max 1 µM, 7x7, partner max 3 µM) | -0.0603 | 0.119 | 0.0001 | -0.01 | -0.0143 | -0.0459 | 0.0208 | -0.0063 | -0.0777 | -0.0085 | -0.0432 | 0.0031 | -0.0102 | -0.0188 | -0.0353 | -0.0269 | -0.0052 | 0.0239 | -0.013 | 0.0512
8 | Cc1c2c(nn1C)CSCc1cc(n(C)n1)CSc1cc(c3ccccc3c1)OCCCc1c(C(=O)O)n(C)c3c-2c(Cl)ccc13 [AZD5991] + Cc1cc2ncnn2cc1Nc1ncc2c(n1)n(C1CCOCC1)c(=O)n2C [AZD7648] (first compound max 1 µM, 7x7, partner max 10 µM) | -0.0679 | -0.067 | -0.0177 | -0.0354 | -0.0375 | -0.0059 | -0.0662 | -0.0525 | -0.0528 | -0.0431 | -0.0286 | -0.0306 | -0.0149 | -0.0085 | -0.0088 | -0.0151 | 0.0057 | 0.0328 | -0.069 | -0.024
9 | Cc1c2c(nn1C)CSCc1cc(n(C)n1)CSc1cc(c3ccccc3c1)OCCCc1c(C(=O)O)n(C)c3c-2c(Cl)ccc13 [AZD5991] + Cn1cnc2c(F)c(Nc3ccc(Br)cc3Cl)c(C(=O)NOCCO)cc21 [Selumetinib] (first compound max 1 µM, 7x7, partner max 3 µM) | 0.0334 | 0.213 | -0.0091 | 0.0116 | -0.0318 | 0.0278 | 0.0053 | 0.0485 | -0.0643 | 0.0495 | -0.0414 | -0.0477 | 0.0025 | 0.034 | 0.0048 | -0.0147 | -0.0344 | -0.021 | -0.0435 | -0.0053
10 | C[C@@H]1COCCN1c1cc(C2([S@](C)(=N)=O)CC2)nc(-c2ccnc3[nH]ccc23)n1 [AZD6738] + O=C(c1cc(Cc2n[nH]c(=O)c3ccccc23)ccc1F)N1CCN(C(=O)C2CC2)CC1 [Olaparib] (first compound max 10 µM, 7x7, partner max 10 µM) | 0.0507 | 0.0033 | 0.0109 | 0.0151 | -0.0041 | 0.0288 | 0.0143 | -0.0713 | -0.0683 | 0.0049 | 0.0141 | 0.0112 | -0.101 | -0.0439 | -0.0101 | -0.007 | -0.0047 | -0.0235 | -0.0218 | -0.0214
11 | Cc1cc2ncnn2cc1Nc1ncc2c(n1)n(C1CCOCC1)c(=O)n2C [AZD7648] + C=CCn1c(=O)c2cnc(Nc3ccc(N4CCN(C)CC4)cc3)nc2n1-c1cccc(C(C)(C)O)n1 [AZD1775] (first compound max 10 µM, partner max 1 µM) | -0.0401 | 0.0194 | -0.012 | -0.055 | -0.0318 | -0.0108 | -0.0252 | -0.0067 | -0.0887 | -0.0363 | -0.048 | 0.0063 | 0.0248 | -0.0936 | 0.0053 | 0.0089 | 0.0049 | -0.0191 | 0.0308 | -0.0395
12 | Cc1cc2ncnn2cc1Nc1ncc2c(n1)n(C1CCOCC1)c(=O)n2C [AZD7648] + CCN(CCO)CCCOc1ccc2c(Nc3cc(CC(=O)Nc4cccc(F)c4)[nH]n3)ncnc2c1 [AZD2811] (first compound max 10 µM, 7x7, partner max 1 µM) | -0.0151 | 0.01 | -0.0458 | -0.003 | -0.0269 | -0.0002 | -0.0098 | 0.0148 | -0.0635 | 0.016 | -0.0255 | -0.0044 | -0.032 | 0.0209 | -0.0048 | -0.0148 | 0.0118 | -0.0765 | 0.0717 | -0.0038
13 | Cc1cc2ncnn2cc1Nc1ncc2c(n1)n(C1CCOCC1)c(=O)n2C [AZD7648] + CN(C)CCCOc1ccc(-c2ccc3ncc4c(c3c2)n(C2CCOCC2)c(=O)n4C)cn1 [AZD0156] (first compound max 10 µM, 7x7, partner max 1 µM) | -0.0108 | -0.001 | -0.0078 | -0.019 | -0.0239 | 0.0492 | -0.0542 | -0.0161 | -0.0268 | -0.0031 | 0.0421 | -0.0019 | -0.0041 | -0.0141 | 0.0114 | -0.0352 | 0.0407 | 0.001 | -0.0453 | -0.029
14 | Cc1cc2ncnn2cc1Nc1ncc2c(n1)n(C1CCOCC1)c(=O)n2C [AZD7648] + C[C@@H]1COCCN1C2=NC(=NC(=C2)C3(CC3)[S@](=N)(=O)C)C4=C5C=CNC5=NC=C4 [AZD6738] (first compound max 10 µM, 7x7, partner max 10 µM) | -0.0027 | 0.024 | 0.0237 | -0.0312 | -0.0339 | 0.0286 | -0.0199 | -0.0085 | -0.0406 | -0.0617 | 0.0016 | 0.0627 | 0.0223 | 0.0094 | -0.0231 | 0.0086 | -0.0166 | -0.0398 | -0.0122 | -0.0352
15 | Cc1cc2ncnn2cc1Nc1ncc2c(n1)n(C1CCOCC1)c(=O)n2C [AZD7648] + O=C(c1cc(Cc2n[nH]c(=O)c3ccccc23)ccc1F)N1CCN(C(=O)C2CC2)CC1 [Olaparib] (first compound max 10 µM, 7x7, partner max 10 µM) | 0.003 | -0.0319 | -0.0435 | 0.0666 | 0.0079 | 0.0309 | -0.0152 | -0.0816 | -0.0106 | -0.0059 | -0.0149 | -0.0148 | -0.0789 | -0.076 | -0.0095 | -0.021 | -0.0236 | -0.0164 | -0.0413 | -0.0136
